Values after ≈ are worked out from the molar mass of the structure shown. Values joined by “and” are separate entries in the source; they are usually repeats but may differ in a detail not shown here. Equal entries are not always repeated. Where two headings read alike, the source gives them in different places.
Columns and labels:
[1] = system: Candida tropicalis CBS 94; assay: MIC by broth microdilution; assay type: cell-based; details: CBS94, 24 h, N.A.: no activity, read-out: MIC C. tropicalis CBS 94
Procedure: (§1) Antifungal activity evaluations were performed using references strains of Candida spp., obtained from the Centraalbureau voor Schimmelcultures (CBS, Ultrecht, Netherlands): Candida albicans CBS 562, Candida tropicalis CBS 94, and Candida krusei CBS 573. Nystatin, Tween 80%, DMSO, caspofungin diacetate, and ergosterol were obtained from Sigma-Aldrich® (St. Louis, MO, EUA) and sorbitol (D-sorbitol anhydrous) from INLAB® (São Paulo, Brazil). All assays were performed in triplicate in three independent experiments. The culture medium used for maintenance of the microorganisms was Agar Sabouraud Dextrose (ASD). Inoculants were adjusted to a final concentration of 2.5 × 10^3 CFU/mL (Clinical and Laboratory Standards Institute, 2002). […]
(§2) MIC was determined by the microdilution technique, as previously described by the adapted Clinical and Laboratory Standards Institute (CLSI, 2002) method. The compounds were subjected to the microdilution technique in 96-well plates, with U bottom. The samples were dissolved with DMSO and sterile distilled water (up to 1.0 mL). Through serial dilutions, concentrations of the evaluated compounds ranging from 1000 μg/mL to 7.8 μg/mL. The culture sterility medium, the evaluated substances, and the microbial growth were carried out in parallel. The plates were closed and subjected to a temperature of 35 ± 2°C for 24 h. 1% TTC (2,3,5-triphenyl tetrazolium chloride, Sigma-Aldrich®, St. Louis, MO, EUA) was added to each well to confirm the presence of viable microorganisms. MIC was defined as the lowest concentration of the test substance that inhibits visible microbial growth.

Candida krusei CBS 573 [2] = assay: MIC by broth microdilution; assay type: cell-based; details: Pichia kudriavzevii, CBS573, 24 h, N.A.: no activity, read-out: MIC C. krusei CBS 573
Procedure: as §1, §2

Candida albicans CBS 562 [3] = assay: MIC by broth microdilution; assay type: cell-based; details: Candida albicans, CBS562, 24 h, N.A.: no activity, read-out: MIC C. albicans CBS 562
Procedure: as §1, §2

[4] = system: Candida tropicalis CBS 94; assay: Minimum fungicide concentration (MFC); assay type: cell-based
Procedure: as §1
(§3) The minimum fungicide concentration (MFC) of the compounds was obtained after the interpretation of the MIC. Three (3) aliquots of 30 μL of supernatant were removed from the wells (where complete inhibition of fungal growth was analyzed) and placed in Petri dishes containing 15 mL of agar Sabouraud dextrose. The plates were incubated at 35 ± 2°C for 24 h for visual counting of colony forming units. To determine whether the compounds had fungistatic (MFC/MIC ≥ 4) or fungicidal (MFC/MIC < 4) activity, the MFC/MIC ratio was calculated.

Candida krusei CBS 573 [5] = assay: Minimum fungicide concentration (MFC); assay type: cell-based
Procedure: as §1, §3

Candida albicans CBS 562 [6] = assay: Minimum fungicide concentration (MFC); assay type: cell-based
Procedure: as §1, §3

C. albicans CBS 562 = assay: Sorbitol assay (cell wall mechanism), microdilution; assay type: cell-based, Candida albicans; details: Candida albicans, CBS562, C. albicans CBS 562
Procedure: (1) Sorbitol Assay. The microdilution technique was performed in the presence of sorbitol (D-sorbitol, anhydrous) (INLAB laboratory), to determine the mode of action of the compounds on the cell wall of C. albicans CBS 562. For this test, the inoculum was prepared with sorbitol to a final concentration of 0.8 M. The plates were incubated at 35 ± 2°C, and readings were taken 24 h and 48 h after incubation. Caspofungin was used as positive control at an initial concentration of 5 mg/mL [68–70].

MRC5 = assay: Cytotoxicity assay, alamar blue test (healthy cell line); assay type: cell-based, human; details: Homo sapiens, MRC5, 72 h, value (95% confidence interval)
Procedure: (§4) HepG2 cells (human hepatocellular carcinoma), HCT116 (human colon carcinoma), HL-60 (human promyelocytic leukemia), and MRC5 (human lung fibroblast) obtained from the ATCC (Manassas, VA, USA) were used. Cells were cultured in cell culture bottles (75 cm 3, 250 mL volume), and media used were RPMI 1640 and supplemented with 10% fetal bovine serum. Cells were maintained in incubators with 5% CO2 atmosphere at 37°C. Cellular growth was monitored daily with the use of an inversion microscope. The medium was changed whenever cell growth reached the necessary confluence for nutrient renewal. For the maintenance of adhered cells, trypsin (0.25%) was used for the cells to detach from the walls of the bottles.
(§5) To assess the cytotoxicity of the substances, the alamar blue test was performed after 72 h of exposure with the test substances. Alamar blue, known as resazurin [62], is a fluorescent/colorimetric indicator with redox properties. The reduction in alamar blue reflects cell proliferation. This was initially used to indicate cell growth and/or viability in monitoring lymphocyte proliferation and currently has several applications. Initially, cells were plated in 96-well plates (100 μL/well of a solution of 0.3 × 10^6 cells/mL for cells in suspension and 0.7 × 10^5 cells/mL for adhered cells). After 24 h of incubation, the test substances dissolved in DMSO were added to each well and incubated for 72 h. Doxorubicin was used as a positive control. The negative control received the same amount of DMSO. Four hours before the end of the incubation period, 20 μL of the stock solution (0.312 mg/mL) of alamar blue (resazurin) was added to each well. Absorbances were measured at wavelengths of 570 nm (reduced) and 600 nm (oxidized) using a plate reader.

HepG2 cells = assay: Cytotoxicity assay, alamar blue test; assay type: cell-based, human; details: Homo sapiens, HepG2, 72 h, value (95% confidence interval)
Procedure: as §4, §5

HCT116 = assay: Cytotoxicity assay, alamar blue test; assay type: cell-based, human; details: Homo sapiens, HCT-116, 72 h, value (95% confidence interval)
Procedure: as §4, §5

HL-60 = assay: Cytotoxicity assay, alamar blue test; assay type: cell-based, human; details: Homo sapiens, HL-60, 72 h, value (95% confidence interval), read-out: IC50 HL60
Procedure: as §4, §5

[7] = system: Candida strains (Candida albicans, C. tropicalis, and C. krusei); assay: Antifungal evaluation (MIC/MFC), statements for all Candida strains; assay type: cell-based, Candida spp.; details: Candida strains; read-out: bioactivity category by MIC
Procedure: The antifungal activity (Table 2) of the ten amides was assessed via the minimum inhibitory concentration (MIC) which was determined using the microdilution methods against three species of Candida strains (Candida albicans, C. tropicalis, and C. krusei).
as §1, §2
as §3, with “units.” for “units. To determine whether the compounds had fungistatic (MFC/MIC ≥ 4) or fungicidal (MFC/MIC < 4) activity, the MFC/MIC ratio was calculated.”

C. albicans = assay: Ergosterol test (plasma membrane mechanism), microdilution; assay type: cell-based, Candida albicans; details: Candida albicans
Procedure: (2) Ergosterol Test. The test of the compounds was performed using the microdilution technique, as previously described, in the presence of exogenous ergosterol at 400 μg/mL. Nystatin was used as positive control. The plates were incubated at 35 ± 2°C, and readings were taken at 24 and 48 h.

[8] = ≥ 4 fungistatic or <4 fungicide

melting point: 172 to 175 °C | MIC [1]: 500 µg/mL (≈ 1530 µM) | MIC (Candida krusei CBS 573 [2]): 62.5 µg/mL (≈ 191 µM) | MIC (Candida albicans CBS 562 [3]): 62.5 µg/mL and 190 µM | MIC (C. albicans CBS 562; absence of sorbitol, read-out: MIC Without sorbitol): 15.6 µg/mL (≈ 47.7 µM) | MIC (C. albicans CBS 562; sorbitol 0.8 M, read-out: MIC With sorbitol): > 1000 µg/mL | MIC [7]: 26 to 125 µg/mL (≈ 79.4 to 382 µM) | MIC (C. albicans; absence of ergosterol, read-out: MIC Without ergosterol): 62.2 µg/mL (≈ 190 µM) | MIC (C. albicans; exogenous ergosterol at 400 μg/mL, read-out: MIC With ergosterol): 62.2 µg/mL (≈ 190 µM)
SMILES: COc1cc(C=CC(=O)NCc2ccc3c(c2)OCO3)ccc1O [Compound 11]
MFC ([4]; Candida tropicalis, CBS94, N.A.: no activity, read-out: MFC C. tropicalis CBS 94): 500 µg/mL and 1520 µM | MIC/MFC reason C. tropicalis CBS 94 [4, 8]: 1 | MFC (Candida krusei CBS 573 [5]; Pichia kudriavzevii, CBS573, N.A.: no activity, read-out: MFC C. krusei CBS 573): 62.5 µg/mL and 190 µM | MIC/MFC reason C. krusei CBS 573 (Candida krusei CBS 573 [5]; [8]): 1 | MFC (Candida albicans CBS 562 [6]; Candida albicans, CBS562, N.A.: no activity, read-out: MFC C. albicans CBS 562): 125 µg/mL and 380 µM | MIC/MFC reason C. albicans CBS 562 (Candida albicans CBS 562 [6]; [8]): 2 | IC50 (MRC5): > 25 µg/mL and > 76.4 µM | IC50 (HepG2 cells): > 25 µg/mL and > 76.4 µM | IC50 (HCT116): > 25 µg/mL and > 76.4 µM | IC50 (HL-60): 18.8 µg/mL and 57.4 µM

Source: paper PMC8575619, “Cytotoxic and Antifungal Amides Derived from Ferulic Acid: Molecular Docking and Mechanism of Action” (BioMed Research International, 2021)
